Data reported in ChEMBL document CHEMBL1201862, “PubChem BioAssay data set” (2004).
The source made the active and inactive calls.

Assays:
[1] = target: T1, E3 ubiquitin-protein ligase XIAP (Homo sapiens, UniProt P98170); assay: Counter Screen using XIAP-Bir3 for Chemical Antagonists of Bir1/2 domains of IAP-family anti-apoptotic proteins. [Related pubchem assays (depositor defined):AID1018, AID1449, AID1514, AID1638, AID1749, AID1750, AID488957, AID488963]
[2] = target: T1, E3 ubiquitin-protein ligase XIAP; assay: XIAP antagonists, biochemical, IAP family, fluorescence polarization (AID 1018); assay type: functional
[3] = target: DNA dC->dU-editing enzyme APOBEC-3A (Homo sapiens, UniProt P31941); assay: Dose Response confirmation of small molecule APOBEC3A DNA Deaminase Inhibitors via a fluorescence-based single-stranded DNA deaminase assay. [Related pubchem assays (depositor defined):AID493011, AID493024]; assay type: functional
DNA dC->dU-editing enzyme APOBEC-3A, sequence (P31941 whole entry): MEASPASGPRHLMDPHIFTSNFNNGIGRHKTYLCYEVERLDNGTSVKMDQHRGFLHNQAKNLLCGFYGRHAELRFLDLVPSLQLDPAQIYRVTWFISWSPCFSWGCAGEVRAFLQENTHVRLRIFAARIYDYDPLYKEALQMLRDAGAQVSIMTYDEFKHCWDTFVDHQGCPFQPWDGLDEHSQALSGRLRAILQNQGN

[4] = target: DNA dC->dU-editing enzyme APOBEC-3G (Homo sapiens, UniProt Q9HC16); assay type: functional;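 note: Dose-response counterscreen measuring inhibition of APOBEC3G DNA deaminase activity, run while confirming APOBEC3A inhibitors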
DNA dC->dU-editing enzyme APOBEC-3G, sequence (Q9HC16 whole entry): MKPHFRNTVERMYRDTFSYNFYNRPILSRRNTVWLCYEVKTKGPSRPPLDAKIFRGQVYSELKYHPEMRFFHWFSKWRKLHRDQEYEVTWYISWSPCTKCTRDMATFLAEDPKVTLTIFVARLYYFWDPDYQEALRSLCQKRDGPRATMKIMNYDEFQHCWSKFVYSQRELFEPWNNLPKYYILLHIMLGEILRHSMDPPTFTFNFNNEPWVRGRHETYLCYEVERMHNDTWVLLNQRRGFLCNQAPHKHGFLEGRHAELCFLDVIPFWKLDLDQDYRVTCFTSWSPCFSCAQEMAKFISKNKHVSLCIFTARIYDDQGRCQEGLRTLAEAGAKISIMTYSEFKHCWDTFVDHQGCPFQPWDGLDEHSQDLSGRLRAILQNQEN

Beta-galactosidase = Beta-galactosidase (Escherichia coli, UniProt Q8VNN2); assay: Dose response counterscreen for EBI2 assay utilizing the enzyme, b-galactosidase.; assay type: functional
Beta-galactosidase, sequence (Q8VNN2 whole entry): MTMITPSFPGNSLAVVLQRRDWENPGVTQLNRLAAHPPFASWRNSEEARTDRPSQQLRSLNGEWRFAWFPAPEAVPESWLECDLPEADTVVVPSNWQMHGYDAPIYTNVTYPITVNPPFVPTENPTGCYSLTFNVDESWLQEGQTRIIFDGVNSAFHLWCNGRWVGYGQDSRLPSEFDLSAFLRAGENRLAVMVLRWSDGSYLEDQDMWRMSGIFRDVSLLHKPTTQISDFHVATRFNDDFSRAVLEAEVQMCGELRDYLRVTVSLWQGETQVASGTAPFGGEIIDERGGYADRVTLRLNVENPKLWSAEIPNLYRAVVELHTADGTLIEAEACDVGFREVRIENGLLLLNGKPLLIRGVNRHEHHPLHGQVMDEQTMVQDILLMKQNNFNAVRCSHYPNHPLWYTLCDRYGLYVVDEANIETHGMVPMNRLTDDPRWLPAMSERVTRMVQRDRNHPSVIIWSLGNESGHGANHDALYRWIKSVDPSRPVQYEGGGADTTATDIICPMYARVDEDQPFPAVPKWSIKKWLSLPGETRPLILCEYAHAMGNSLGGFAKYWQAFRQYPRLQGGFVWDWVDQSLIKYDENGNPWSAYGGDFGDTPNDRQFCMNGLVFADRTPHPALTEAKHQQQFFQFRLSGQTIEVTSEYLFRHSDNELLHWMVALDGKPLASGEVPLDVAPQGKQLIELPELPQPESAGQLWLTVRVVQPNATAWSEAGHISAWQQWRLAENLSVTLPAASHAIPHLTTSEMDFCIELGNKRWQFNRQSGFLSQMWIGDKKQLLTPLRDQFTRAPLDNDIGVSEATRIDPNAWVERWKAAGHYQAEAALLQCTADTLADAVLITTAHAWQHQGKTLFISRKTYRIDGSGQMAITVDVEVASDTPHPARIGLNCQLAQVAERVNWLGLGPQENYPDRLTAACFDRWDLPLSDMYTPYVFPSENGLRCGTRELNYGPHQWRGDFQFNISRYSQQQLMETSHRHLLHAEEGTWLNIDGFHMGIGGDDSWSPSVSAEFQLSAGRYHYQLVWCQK

[5] = Counterscreen for AddAB inhibitors: absorbance-based bacterial cell-based high throughput dose response assay for inhibitors of bacterial viability. [Related pubchem assays (depositor defined):AID435030, AID449728, AID449731, AID488942, AID488955, AID488956]; assay type: functional
Exodeoxyribonuclease V = target: T2, Exodeoxyribonuclease V (Escherichia coli (strain K12), UniProt P04993+P07648+P08394); assay: E. coli RecBCD inhibitors, dose response, counter-screen for AddAB inhibitor project, absorbance, V66 E. coli, mutant T4 phage (AID 492957); assay type: functional, cell-based, Escherichia coli str. K-12 substr. MG1655
T2 sequence (P04993 whole entry): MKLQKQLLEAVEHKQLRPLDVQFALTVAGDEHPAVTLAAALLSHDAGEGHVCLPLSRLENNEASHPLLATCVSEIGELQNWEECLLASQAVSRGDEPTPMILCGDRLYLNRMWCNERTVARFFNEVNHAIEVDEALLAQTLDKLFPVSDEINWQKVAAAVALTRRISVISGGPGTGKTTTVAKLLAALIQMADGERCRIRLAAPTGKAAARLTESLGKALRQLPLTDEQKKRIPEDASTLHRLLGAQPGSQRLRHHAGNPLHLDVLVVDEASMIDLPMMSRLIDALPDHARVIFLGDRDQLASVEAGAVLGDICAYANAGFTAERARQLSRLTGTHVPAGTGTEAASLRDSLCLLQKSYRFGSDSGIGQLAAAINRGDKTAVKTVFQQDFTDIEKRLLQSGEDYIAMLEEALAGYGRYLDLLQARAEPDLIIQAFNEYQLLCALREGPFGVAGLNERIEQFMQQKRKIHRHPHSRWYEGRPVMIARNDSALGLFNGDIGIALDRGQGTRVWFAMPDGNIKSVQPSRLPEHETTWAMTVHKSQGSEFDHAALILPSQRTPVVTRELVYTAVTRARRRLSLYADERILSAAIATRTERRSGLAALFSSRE
T2 sequence (P07648 whole entry): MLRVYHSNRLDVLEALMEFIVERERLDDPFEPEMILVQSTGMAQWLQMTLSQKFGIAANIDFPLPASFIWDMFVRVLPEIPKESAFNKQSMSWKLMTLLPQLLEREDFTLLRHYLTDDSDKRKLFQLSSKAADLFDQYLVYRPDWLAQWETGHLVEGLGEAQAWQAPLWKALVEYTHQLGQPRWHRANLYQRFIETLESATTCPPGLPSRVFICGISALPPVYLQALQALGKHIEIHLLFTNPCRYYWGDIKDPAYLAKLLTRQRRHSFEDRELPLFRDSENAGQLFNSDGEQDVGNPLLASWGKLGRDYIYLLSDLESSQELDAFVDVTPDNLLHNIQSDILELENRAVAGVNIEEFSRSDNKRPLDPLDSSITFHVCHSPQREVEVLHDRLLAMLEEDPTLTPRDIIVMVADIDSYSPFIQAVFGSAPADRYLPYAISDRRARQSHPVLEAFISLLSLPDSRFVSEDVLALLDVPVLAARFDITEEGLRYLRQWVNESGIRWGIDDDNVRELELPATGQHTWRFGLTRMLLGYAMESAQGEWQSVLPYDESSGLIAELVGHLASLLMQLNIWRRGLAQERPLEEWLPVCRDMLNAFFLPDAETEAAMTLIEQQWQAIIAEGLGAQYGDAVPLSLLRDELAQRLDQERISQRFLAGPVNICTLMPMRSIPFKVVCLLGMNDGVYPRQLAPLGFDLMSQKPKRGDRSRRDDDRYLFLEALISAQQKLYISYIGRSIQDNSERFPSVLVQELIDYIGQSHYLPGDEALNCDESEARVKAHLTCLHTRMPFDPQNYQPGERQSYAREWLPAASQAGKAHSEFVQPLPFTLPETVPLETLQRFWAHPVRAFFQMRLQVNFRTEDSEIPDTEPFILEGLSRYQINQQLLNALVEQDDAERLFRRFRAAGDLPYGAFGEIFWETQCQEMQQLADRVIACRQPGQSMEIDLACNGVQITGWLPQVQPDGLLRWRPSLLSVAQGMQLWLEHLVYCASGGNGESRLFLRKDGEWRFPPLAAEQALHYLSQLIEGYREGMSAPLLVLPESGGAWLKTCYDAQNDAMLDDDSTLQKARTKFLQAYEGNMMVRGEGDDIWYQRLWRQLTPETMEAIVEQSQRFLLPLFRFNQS
T2 sequence (P08394 whole entry): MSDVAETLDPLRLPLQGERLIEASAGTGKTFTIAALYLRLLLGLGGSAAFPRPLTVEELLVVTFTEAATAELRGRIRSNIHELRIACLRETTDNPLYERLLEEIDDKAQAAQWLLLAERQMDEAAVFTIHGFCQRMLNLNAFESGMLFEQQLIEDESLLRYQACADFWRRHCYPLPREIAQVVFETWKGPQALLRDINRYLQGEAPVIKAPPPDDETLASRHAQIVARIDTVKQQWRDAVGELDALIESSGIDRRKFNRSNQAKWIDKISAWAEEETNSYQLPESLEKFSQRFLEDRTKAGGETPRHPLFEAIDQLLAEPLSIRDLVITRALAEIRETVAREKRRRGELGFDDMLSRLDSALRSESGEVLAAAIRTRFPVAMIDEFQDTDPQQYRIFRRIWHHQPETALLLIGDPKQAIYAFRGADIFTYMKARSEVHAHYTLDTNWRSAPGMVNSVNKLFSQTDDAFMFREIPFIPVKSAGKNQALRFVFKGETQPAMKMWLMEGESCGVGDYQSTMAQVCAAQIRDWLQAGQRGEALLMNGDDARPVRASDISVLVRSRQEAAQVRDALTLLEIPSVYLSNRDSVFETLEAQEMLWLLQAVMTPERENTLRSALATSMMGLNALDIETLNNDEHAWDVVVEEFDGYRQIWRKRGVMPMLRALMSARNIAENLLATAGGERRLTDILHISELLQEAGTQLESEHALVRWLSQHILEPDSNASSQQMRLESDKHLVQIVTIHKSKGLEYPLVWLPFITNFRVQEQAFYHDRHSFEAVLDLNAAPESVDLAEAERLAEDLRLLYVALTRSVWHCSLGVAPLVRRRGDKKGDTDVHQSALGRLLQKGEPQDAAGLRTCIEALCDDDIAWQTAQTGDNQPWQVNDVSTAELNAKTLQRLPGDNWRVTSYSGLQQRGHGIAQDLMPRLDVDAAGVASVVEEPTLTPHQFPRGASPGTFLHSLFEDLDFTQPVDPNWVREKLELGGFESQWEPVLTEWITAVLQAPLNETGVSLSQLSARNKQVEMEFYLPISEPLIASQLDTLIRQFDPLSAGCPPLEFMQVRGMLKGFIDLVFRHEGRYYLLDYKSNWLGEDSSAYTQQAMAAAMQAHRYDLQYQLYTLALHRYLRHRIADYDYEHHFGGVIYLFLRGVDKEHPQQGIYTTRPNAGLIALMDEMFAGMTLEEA

[6] = target: T3, Tyrosine-protein phosphatase non-receptor type 7 (Homo sapiens, UniProt P35236); assay: redox-dependent HePTP inhibition, mechanism study, biochemical, fluorescence (AID 2068); assay type: functional
T3 sequence (P35236 whole entry): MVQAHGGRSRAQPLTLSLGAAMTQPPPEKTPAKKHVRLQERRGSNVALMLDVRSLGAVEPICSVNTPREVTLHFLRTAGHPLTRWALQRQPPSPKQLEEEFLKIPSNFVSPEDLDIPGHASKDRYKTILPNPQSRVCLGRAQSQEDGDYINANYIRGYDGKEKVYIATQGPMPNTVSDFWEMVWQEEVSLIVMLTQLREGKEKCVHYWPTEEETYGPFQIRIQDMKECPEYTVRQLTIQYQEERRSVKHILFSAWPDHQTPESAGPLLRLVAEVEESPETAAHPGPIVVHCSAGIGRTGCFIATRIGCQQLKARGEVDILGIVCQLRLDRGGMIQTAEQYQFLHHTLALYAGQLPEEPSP

T1 sequence (P98170 whole entry): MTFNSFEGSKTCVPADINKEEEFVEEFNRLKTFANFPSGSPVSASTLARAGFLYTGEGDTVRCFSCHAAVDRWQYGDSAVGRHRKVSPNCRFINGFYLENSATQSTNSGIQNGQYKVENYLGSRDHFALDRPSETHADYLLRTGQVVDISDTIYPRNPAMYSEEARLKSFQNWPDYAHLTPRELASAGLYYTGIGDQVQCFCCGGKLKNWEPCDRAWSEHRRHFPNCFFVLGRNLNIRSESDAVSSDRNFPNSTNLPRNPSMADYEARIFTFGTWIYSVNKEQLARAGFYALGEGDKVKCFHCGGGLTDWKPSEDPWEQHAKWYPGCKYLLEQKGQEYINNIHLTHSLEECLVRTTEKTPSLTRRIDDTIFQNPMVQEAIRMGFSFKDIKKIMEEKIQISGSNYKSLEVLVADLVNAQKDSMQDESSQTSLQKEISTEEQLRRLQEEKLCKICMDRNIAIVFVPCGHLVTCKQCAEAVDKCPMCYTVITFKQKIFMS

With Cc1c(Br)cccc1NC(=O)c1sccc1-n1cccc1 the IC50 [1] was > 100 µM (inactive) and the IC50 [2] was > 100 µM (not active).
For CCN1CCN(S(=O)(=O)c2ccc(Cl)c(C(=O)Nc3ccccc3N3CCOCC3)c2)CC1, the IC50 [3] was 4.8 µM (active) and the IC50 [4] was 3.81 µM (active).
In the case of O=C(/C=C/c1ccc(Cl)cc1)N1CCN(c2ccc([N+](=O)[O-])c(N3CCOCC3)c2)CC1, the IC50 (Beta-galactosidase) is reported as > 80 µM (inactive), the IC50 [1] is reported as > 100 µM (inactive) and the IC50 [2] is reported as > 100 µM (not active).
For O=C(c1ccc([N+](=O)[O-])o1)N1CCOCC1, the IC50 [5] was > 39.5 µM (inactive) and the IC50 (Exodeoxyribonuclease V) was 114 µM (inactive).
In the case of CCCCNC(=O)Nc1ccc2nc(-c3ccco3)c(-c3ccco3)nc2c1, the IC50 [6] is reported as 0.452 µM (active).
